Source: article PMC2723721 (Bioorganic & medicinal chemistry, 2009)

Biological target: p47phox (Homo sapiens, UniProt P14598)
Test: ELISA: his-p47phox binding to immobilized biotin-p22phox peptide with […] IAA
Format: biochemical

Chain of p47phox (P13498 2-195): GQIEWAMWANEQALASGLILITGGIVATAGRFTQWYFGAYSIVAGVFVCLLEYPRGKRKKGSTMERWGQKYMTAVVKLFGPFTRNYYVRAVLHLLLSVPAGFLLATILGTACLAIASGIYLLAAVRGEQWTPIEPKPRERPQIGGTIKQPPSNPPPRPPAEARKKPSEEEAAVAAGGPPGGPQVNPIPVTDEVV
Chain of p47phox (P14598 whole entry): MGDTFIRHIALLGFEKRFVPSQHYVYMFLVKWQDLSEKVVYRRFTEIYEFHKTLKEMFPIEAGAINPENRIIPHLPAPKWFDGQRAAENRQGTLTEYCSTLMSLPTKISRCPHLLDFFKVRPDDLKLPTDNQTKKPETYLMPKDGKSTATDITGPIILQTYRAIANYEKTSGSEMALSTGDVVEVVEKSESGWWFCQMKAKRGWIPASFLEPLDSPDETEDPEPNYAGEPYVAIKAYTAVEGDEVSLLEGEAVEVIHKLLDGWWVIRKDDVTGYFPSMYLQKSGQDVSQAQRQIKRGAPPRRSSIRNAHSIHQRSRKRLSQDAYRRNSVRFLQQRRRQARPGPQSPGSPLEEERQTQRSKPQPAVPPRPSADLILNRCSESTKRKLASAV

SMILES: NC(=O)CI [IAA, iodoacetamide]
- % drop in bound p47phox at 1 μM: > 50 % drop in bound p47phox at 1 μM
